Measured values: patent US20240417689A1, “ENGINEERING OF STRATIFIED CELL SHEETS USING MESENCHYMAL STEM CELLS” (Emmaus Life Sciences, Inc, priority 2021, published 2024)
“Also recorded” adds a separate entry of the source.

Key:
adipose stromal cells [1] = test: Chondrogenic differentiation of stem cells in differentiation medium supplemented with ROCK inhibitor; format: cell-based, human; settings: for Cell differentiation noticed / started, time after initial treatment with ROCK inhibitor: MesenCult-ACF Chondrogenic Differentiation medium supplemented with ROCK inhibitor, dose dependent; for Induction of stem cell differentiation: differentiation medium supplemented with ROCK inhibitor
Protocol: (§1) Chondrocyte Cell Sheet: ASC were cultured with RoosterNourish™-MSC-XF, until the cells reached confluence. From that day, ASC were cultured with MesenCult™-ACF Chondrogenic Differentiation Kit (Stem Cell, Vancouver, Canada). The culture media was replaced every 2 days, up to X days from the initial seeding day depending on the technique used to engineer the cell sheet.
(§2) One of two techniques was used to complete the engineering process: 1) To stop centrifuge tension, the edges of the cell sheets were cut, and the cell sheet was left resting in almost absence of culture media (MesenCult™-ACF Chondrogenic Differentiation) to let the cell sheets' edges attached to the cell culture surface, for 20 minutes. The differentiation culture media (MesenCult™-ACF Chondrogenic Differentiation) was added to the cell culture dish and the chondrocyte cell sheet was engineered up to 21 days after the initial day of differentiation. 2) ROCK inhibitor Y-27632 at 10 μM or ROCK inhibitor Y-33075 at 1 μM were used from the first day of differentiation.

adipose stromal cells [2] = test: Engineering of chondrocyte cell sheets with ROCK inhibitor (detachment, time of formation); format: cell-based, human; settings: for Success in engineering the chondrocyte multilayer cell sheets: ROCK 1 and 2 inhibitors; for Detachment of the cell sheets / Time in which cell sheets were formed: Y-27632 at 10 μM or Y-33075 at 1 μM from the first day of differentiation; for Reduction of the time of differentiation: Y-27632 at 10 μM or Y-33075 at 1 μM, versus 21 days with edge cutting
Protocol: as §1, §2
Undifferentiated ASCCS were engineered in 10 days, using a chemically defined culture media. Differentiated ASCCS into Chondrocyte (treated with ROCK inhibitor from 1 to 20 μM), […] and osteoblast were also engineered using chemically defined and animal free culture media, in 14, 21 and 14 days, respectively. The transmittance of the ASCCS were measured over time from the time the cells reached confluence until the cell sheets were harvested.

adipose stromal cells [3] = test: Toxicity of ROCK inhibitor for the cells during differentiation; format: cell-based; settings: dose response

| SMILES | Cell differentiation noticed / started, time after initial treatment with ROCK inhibitor (adipose stromal cells [1]) [days] | Induction of stem cell differentiation (adipose stromal cells [1]) | Success in engineering the chondrocyte multilayer cell sheets (adipose stromal cells [2]) | Detachment of the cell sheets (adipose stromal cells [2]) | Time in which cell sheets were formed (adipose stromal cells [2]) [weeks] | Reduction of the time of differentiation (adipose stromal cells [2]) [%] | Toxicity for the cells (adipose stromal cells [3]) |
| --- | --- | --- | --- | --- | --- | --- | --- |
| Cc1cncc2cccc(S(=O)(=O)N3CCCNC[C@@H]3C)c12 [H-1152, (S)-4-methyl-5-((2-methyl-1,4-diazepan-1-yl)sulfonyl)isoquinoline] | 2 | induced the cell differentiation but it is less efficient than Y-27632 and Y-33075 | – | – | – | – | – |
| C[C@@H](N)[C@H]1CC[C@H](C(=O)Nc2ccncc2)CC1 [Y-27632, (1R,4r)-4-((R)-1-aminoethyl)-N-(pyridin-4-yl)cyclohexane-1-carboxamide] | 2 | – | used with success | didn't detach | 2 | 33 | – |
| C[C@@H](N)c1ccc(C(=O)Nc2ccnc3[nH]ccc23)cc1 [Y-33075, (R)-4-(1-aminoethyl)-N-(1H-pyrrolo[2,3-b]pyridin-4-yl)benzamide] | 1 | – | used with success | didn't detach | 2 | 33 | – |
| CC(C)NC(=O)COc1cccc(-c2nc(Nc3ccc4[nH]ncc4c3)c3ccccc3n2)c1 [Belumosudil, 2-[3-[4-(1H-Indazol-5-ylamino)quinazolin-2-yl]phenoxy]-N-propan-2-ylacetamide] | – | failed to induce stem cell differentiation; also recorded: does not induce cell differentiation | – | – | – | – | toxic for the cells in a dose response, inducing cell death |
